Calls of active or inactive are those of the source. The rule behind the calls is not given here. Peptide text beside a SMILES is read from it. * marks the point of attachment. X1 = CC(=O)N[C@H]1[C@H](O[C@H]2[C@@H](O)[C@H](O)[C@@H](CO)O[C@@H]2*)O[C@H](CO)[C@@H](O[C@@H]2O[C@H](CO)[C@H](O)[C@H](O[C@]3(C(=O)O)C[C@H](O)[C@@H](NC(C)=O)[C@H]([C@H](O)[C@H](O)CO)O3)[C@H]2O)[C@@H]1O; X2 = CC(=O)N[C@H]1[C@H](O[C@H]2[C@@H](O)[C@H](O)[C@@H](CO)O[C@@H]2*)O[C@H](CO)[C@@H](O[C@@H]2O[C@H](CO)[C@H](O)[C@H](O)[C@H]2O)[C@@H]1O; GlcNAc(β1-2)αMan = CC(=O)N[C@H]1[C@H](O[C@H]2[C@@H](O)[C@H](O)[C@@H](CO)O[C@@H]2*)O[C@H](CO)[C@@H](O)[C@@H]1O; Hexanoyl(5-oxo) = CC(=O)CCCC(=O)*
Tests used:
Maackia amurensis = test: Binding affinity to biotin-labeled Maackia amurensis agglutinin in pH 7.4 Tris buffer by fluorescence microarray method
Datura stramonium = test: Binding affinity to biotin-labeled Datura stramonium agglutinin in pH 7.4 Tris buffer by fluorescence microarray method
Arachis hypogaea = test: Binding affinity to biotin-labeled Arachis hypogaea agglutinin in pH 7.4 Tris buffer by fluorescence microarray method
[1] = test system: Sambucus racemosa subsp. sieboldiana; test: Binding affinity to biotin-labeled Sambucus sieboldiana agglutinin in pH 7.4 Tris buffer by fluorescence microarray method
Erythrina crista-galli = test: Binding affinity to biotin-labeled Erythrina crista-galli agglutinin in pH 7.4 Tris buffer by fluorescence microarray method
Triticum aestivum = test: Binding affinity to biotin-labeled Wheat germ agglutinin in pH 7.4 Tris buffer by fluorescence microarray method
Canavalia ensiformis = test: Binding affinity to biotin-labeled Canavalia ensiformis agglutinin in pH 7.4 Tris buffer by fluorescence microarray method
[2] = biological target: Laminin subunit alpha-1 (Homo sapiens) (UniProt P25391); test: Binding affinity to biotin-labeled human recombinant laminin-1 at 10 ug/ml in pH 7.4 Tris buffer by fluorescence microarray method
Laminin subunit alpha-1 (Homo sapiens), sequence (P25391 whole entry): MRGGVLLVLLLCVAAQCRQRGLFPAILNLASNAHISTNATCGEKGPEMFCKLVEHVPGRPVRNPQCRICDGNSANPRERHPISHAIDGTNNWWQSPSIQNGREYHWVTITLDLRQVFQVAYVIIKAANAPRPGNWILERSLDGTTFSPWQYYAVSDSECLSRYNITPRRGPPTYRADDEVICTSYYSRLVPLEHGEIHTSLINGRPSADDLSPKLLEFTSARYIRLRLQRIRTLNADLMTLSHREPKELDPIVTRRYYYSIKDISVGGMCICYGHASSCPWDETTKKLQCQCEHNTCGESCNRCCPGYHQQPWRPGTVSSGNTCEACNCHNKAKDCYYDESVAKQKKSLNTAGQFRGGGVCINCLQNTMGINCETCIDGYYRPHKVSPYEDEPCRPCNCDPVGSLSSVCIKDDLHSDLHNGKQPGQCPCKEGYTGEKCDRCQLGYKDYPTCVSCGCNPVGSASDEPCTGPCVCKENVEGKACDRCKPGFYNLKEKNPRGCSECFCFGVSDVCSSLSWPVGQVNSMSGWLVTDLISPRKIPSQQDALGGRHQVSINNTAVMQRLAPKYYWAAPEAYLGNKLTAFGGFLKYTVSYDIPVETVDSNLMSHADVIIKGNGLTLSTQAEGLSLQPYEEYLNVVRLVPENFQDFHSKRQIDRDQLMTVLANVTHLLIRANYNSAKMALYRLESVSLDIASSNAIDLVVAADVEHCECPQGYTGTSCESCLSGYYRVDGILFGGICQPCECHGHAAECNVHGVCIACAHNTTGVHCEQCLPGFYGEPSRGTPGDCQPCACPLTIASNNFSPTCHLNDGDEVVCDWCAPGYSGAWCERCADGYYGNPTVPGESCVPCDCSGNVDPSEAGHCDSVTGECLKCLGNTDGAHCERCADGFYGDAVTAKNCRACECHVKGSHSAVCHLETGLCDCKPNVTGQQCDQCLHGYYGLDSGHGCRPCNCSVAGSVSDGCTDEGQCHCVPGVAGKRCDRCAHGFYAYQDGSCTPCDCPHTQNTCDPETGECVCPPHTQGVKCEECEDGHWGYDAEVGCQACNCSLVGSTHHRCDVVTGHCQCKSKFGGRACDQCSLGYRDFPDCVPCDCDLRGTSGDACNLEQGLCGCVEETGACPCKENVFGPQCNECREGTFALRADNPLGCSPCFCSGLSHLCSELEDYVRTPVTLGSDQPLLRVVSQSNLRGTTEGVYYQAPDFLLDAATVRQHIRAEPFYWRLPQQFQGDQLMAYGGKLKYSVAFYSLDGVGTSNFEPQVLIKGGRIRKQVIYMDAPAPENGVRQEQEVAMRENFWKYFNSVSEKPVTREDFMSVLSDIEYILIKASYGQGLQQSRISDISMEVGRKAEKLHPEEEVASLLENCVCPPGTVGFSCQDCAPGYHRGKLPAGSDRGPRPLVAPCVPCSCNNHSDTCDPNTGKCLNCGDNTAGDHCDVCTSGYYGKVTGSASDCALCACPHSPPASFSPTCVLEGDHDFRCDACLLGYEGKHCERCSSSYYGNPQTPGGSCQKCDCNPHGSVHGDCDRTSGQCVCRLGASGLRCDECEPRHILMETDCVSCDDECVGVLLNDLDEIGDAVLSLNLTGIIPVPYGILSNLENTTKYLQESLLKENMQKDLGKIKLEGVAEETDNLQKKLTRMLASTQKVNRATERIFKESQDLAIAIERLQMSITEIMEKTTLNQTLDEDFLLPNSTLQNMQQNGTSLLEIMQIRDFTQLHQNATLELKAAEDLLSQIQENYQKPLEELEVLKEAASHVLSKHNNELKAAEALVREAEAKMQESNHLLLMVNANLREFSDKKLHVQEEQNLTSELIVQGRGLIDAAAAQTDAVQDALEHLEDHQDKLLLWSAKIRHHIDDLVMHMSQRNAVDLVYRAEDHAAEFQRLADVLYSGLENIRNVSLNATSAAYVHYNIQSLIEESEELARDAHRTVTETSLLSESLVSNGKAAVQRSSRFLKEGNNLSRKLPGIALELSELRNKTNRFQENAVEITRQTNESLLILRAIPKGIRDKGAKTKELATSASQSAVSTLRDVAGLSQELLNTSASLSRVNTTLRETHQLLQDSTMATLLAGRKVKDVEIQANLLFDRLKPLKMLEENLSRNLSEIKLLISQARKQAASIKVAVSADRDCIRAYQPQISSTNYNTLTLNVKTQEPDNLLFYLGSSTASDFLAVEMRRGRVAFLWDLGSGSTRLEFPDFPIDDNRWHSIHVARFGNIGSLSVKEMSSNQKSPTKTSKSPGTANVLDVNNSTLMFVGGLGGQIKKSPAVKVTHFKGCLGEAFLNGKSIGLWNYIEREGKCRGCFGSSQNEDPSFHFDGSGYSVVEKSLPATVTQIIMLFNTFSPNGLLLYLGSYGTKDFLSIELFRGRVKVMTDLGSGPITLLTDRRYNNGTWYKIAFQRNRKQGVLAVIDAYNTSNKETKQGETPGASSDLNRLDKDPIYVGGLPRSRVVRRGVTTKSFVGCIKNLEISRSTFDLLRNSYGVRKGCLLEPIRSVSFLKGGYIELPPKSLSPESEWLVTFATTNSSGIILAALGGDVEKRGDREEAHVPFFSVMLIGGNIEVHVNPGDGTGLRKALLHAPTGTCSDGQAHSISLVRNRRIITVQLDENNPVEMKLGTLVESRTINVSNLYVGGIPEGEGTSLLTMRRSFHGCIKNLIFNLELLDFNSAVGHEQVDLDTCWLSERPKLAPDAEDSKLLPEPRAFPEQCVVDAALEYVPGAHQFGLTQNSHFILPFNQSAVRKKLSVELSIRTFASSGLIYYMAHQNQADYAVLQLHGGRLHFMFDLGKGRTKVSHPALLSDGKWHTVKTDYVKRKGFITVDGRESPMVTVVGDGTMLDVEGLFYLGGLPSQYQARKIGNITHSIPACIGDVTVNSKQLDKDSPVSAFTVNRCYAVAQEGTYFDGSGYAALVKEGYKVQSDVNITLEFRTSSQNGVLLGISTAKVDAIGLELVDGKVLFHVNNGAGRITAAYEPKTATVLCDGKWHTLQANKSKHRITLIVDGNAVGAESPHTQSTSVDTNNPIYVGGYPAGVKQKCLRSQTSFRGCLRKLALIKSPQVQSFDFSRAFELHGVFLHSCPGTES

Homo sapiens [3] = organism: Homo sapiens; test: Binding affinity to biotin-labeled human recombinant laminin-2 at 10 ug/ml in pH 7.4 Tris buffer by fluorescence microarray method
[4] = biological target: Lactotransferrin (Homo sapiens) (UniProt P02788); test: Binding affinity to biotin-labeled lactoferrin (unknown origin) at 10 ug/ml in pH 7.4 Tris buffer by fluorescence microarray method
Lactotransferrin (Homo sapiens), sequence (P02788 whole entry): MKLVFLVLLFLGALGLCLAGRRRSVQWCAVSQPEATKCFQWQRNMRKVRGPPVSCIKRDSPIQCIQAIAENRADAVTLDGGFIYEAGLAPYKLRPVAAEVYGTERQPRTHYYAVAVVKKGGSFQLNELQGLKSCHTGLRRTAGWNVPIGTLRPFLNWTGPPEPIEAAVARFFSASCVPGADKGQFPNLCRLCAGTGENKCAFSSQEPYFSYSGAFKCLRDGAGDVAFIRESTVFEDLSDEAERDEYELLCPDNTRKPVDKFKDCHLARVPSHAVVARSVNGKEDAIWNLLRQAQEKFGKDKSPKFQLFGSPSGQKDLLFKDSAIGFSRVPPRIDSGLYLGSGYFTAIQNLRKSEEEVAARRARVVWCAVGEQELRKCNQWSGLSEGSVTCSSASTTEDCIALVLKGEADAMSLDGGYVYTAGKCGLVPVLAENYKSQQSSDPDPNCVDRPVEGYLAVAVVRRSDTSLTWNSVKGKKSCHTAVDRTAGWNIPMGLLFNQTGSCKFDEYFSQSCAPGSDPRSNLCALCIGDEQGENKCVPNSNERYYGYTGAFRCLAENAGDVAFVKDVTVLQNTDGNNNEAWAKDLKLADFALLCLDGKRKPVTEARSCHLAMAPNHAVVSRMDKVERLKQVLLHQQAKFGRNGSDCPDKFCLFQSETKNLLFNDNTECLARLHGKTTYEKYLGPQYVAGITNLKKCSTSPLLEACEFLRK

[5] = biological target: Laminin subunit alpha-1 (Homo sapiens) (UniProt P25391); test: Binding affinity to biotin-labeled human recombinant laminin-1 at 10 ug/ml in pH 5.6 MES buffer by fluorescence microarray method
[6] = biological target: Lactotransferrin (Homo sapiens) (UniProt P02788); test: Binding affinity to biotin-labeled lactoferrin (unknown origin) at 10 ug/ml in pH 5.6 MES buffer by fluorescence microarray method
Homo sapiens [7] = organism: Homo sapiens; test: Binding affinity to biotin-labeled human recombinant laminin-2 at 10 ug/ml in 5.6 MES buffer by fluorescence microarray method
[8] = Binding affinity to biotin-labeled Agaricus bisporus agglutinin in pH 7.4 Tris buffer by fluorescence microarray method

Row | Activity (Maackia amurensis) | Activity (Datura stramonium) | Activity (Arachis hypogaea) | Activity [1] | Activity (Erythrina crista-galli) | Activity (Triticum aestivum) | Activity (Canavalia ensiformis) | Activity [2] | Activity (Homo sapiens [3]) | Activity [4] | Activity [5] | Activity [6] | Activity (Homo sapiens [7]) | Activity [8] | Structure (SMILES)
1 | inactive | inactive | Active | Active | Active | Active | Active | Active | inactive | inactive | Active | Active | Active | Active | CC[C@H](C)[C@H](NC(=O)[C@H](C)NC(=O)CNC(=O)[C@H](CCCNC(=N)N)NC(=O)[C@@H](NC(=O)CCCC(C)=O)[C@@H](C)O)C(=O)N[C@H](C(=O)N[C@@H](CCC(N)=O)C(=O)N[C@H](C(=O)N1CCC[C@H]1C(=O)N[C@H](C(=O)N[C@@H](CC(C)C)C(=O)NCC(=O)N1CCC[C@H]1C(=O)N[C@H](C(=O)N[C@@H](CCC(N)=O)C(=O)N1CCC[C@H]1C(=O)N[C@H](C(=O)N[C@@H](CCCNC(=N)N)C(=O)N[C@H](C(N)=O)C(C)C)[C@@H](C)O)[C@@H](C)CC)[C@@H](C)O)[C@@H](C)O[C@H]1O[C@H](CO)[C@@H](O)[C@H](O)[C@@H]1O[C@@H]1O[C@H](CO)[C@@H](O)[C@H](O)[C@H]1NC(C)=O)[C@@H](C)CC ({Hexanoyl(5-oxo)}-TRGAIIQT(GlcNAc(β1-2)αMan)PTLGPIQPTRV-NH2)
2 | inactive | inactive | Active | Active | Active | Active | Active | Active | inactive | inactive | Active | Active | Active | Active | CC[C@H](C)[C@H](NC(=O)[C@H](C)NC(=O)CNC(=O)[C@H](CCCNC(=N)N)NC(=O)[C@@H](NC(=O)CCCC(C)=O)[C@@H](C)O)C(=O)N[C@H](C(=O)N[C@@H](CCC(N)=O)C(=O)N[C@H](C(=O)N1CCC[C@H]1C(=O)N[C@H](C(=O)N[C@@H](CC(C)C)C(=O)NCC(=O)N1CCC[C@H]1C(=O)N[C@H](C(=O)N[C@@H](CCC(N)=O)C(=O)N1CCC[C@H]1C(=O)N[C@H](C(=O)N[C@@H](CCCNC(=N)N)C(=O)N[C@H](C(N)=O)C(C)C)[C@@H](C)O[C@H]1O[C@H](CO)[C@@H](O)[C@H](O)[C@@H]1O[C@@H]1O[C@H](CO)[C@@H](O)[C@H](O)[C@H]1NC(C)=O)[C@@H](C)CC)[C@@H](C)O[C@H]1O[C@H](CO)[C@@H](O)[C@H](O)[C@@H]1O[C@@H]1O[C@H](CO)[C@@H](O[C@@H]2O[C@H](CO)[C@H](O)[C@H](O)[C@H]2O)[C@H](O)[C@H]1NC(C)=O)[C@@H](C)O)[C@@H](C)CC ({Hexanoyl(5-oxo)}-TRGAIIQTPT(X2)LGPIQPT(GlcNAc(β1-2)αMan)RV-NH2)
3 | inactive | inactive | Active | Active | Active | Active | Active | Active | inactive | inactive | Active | Active | Active | Active | CC[C@H](C)[C@H](NC(=O)[C@H](C)NC(=O)CNC(=O)[C@H](CCCNC(=N)N)NC(=O)[C@@H](NC(=O)CCCC(C)=O)[C@@H](C)O)C(=O)N[C@H](C(=O)N[C@@H](CCC(N)=O)C(=O)N[C@H](C(=O)N1CCC[C@H]1C(=O)N[C@H](C(=O)N[C@@H](CC(C)C)C(=O)NCC(=O)N1CCC[C@H]1C(=O)N[C@H](C(=O)N[C@@H](CCC(N)=O)C(=O)N1CCC[C@H]1C(=O)N[C@H](C(=O)N[C@@H](CCCNC(=N)N)C(=O)N[C@H](C(N)=O)C(C)C)[C@@H](C)O[C@H]1O[C@H](CO)[C@@H](O)[C@H](O)[C@@H]1O[C@@H]1O[C@H](CO)[C@@H](O)[C@H](O)[C@H]1NC(C)=O)[C@@H](C)CC)[C@@H](C)O)[C@@H](C)O[C@H]1O[C@H](CO)[C@@H](O)[C@H](O)[C@@H]1O[C@@H]1O[C@H](CO)[C@@H](O)[C@H](O)[C@H]1NC(C)=O)[C@@H](C)CC ({Hexanoyl(5-oxo)}-TRGAIIQT(GlcNAc(β1-2)αMan)PTLGPIQPT(GlcNAc(β1-2)αMan)RV-NH2)
4 | inactive | inactive | Active | Active | Active | Active | Active | Active | inactive | inactive | Active | Active | Active | Active | CC[C@H](C)[C@H](NC(=O)[C@H](C)NC(=O)CNC(=O)[C@H](CCCNC(=N)N)NC(=O)[C@@H](NC(=O)CCCC(C)=O)[C@@H](C)O)C(=O)N[C@H](C(=O)N[C@@H](CCC(N)=O)C(=O)N[C@H](C(=O)N1CCC[C@H]1C(=O)N[C@H](C(=O)N[C@@H](CC(C)C)C(=O)NCC(=O)N1CCC[C@H]1C(=O)N[C@H](C(=O)N[C@@H](CCC(N)=O)C(=O)N1CCC[C@H]1C(=O)N[C@H](C(=O)N[C@@H](CCCNC(=N)N)C(=O)N[C@H](C(N)=O)C(C)C)[C@@H](C)O[C@H]1O[C@H](CO)[C@@H](O)[C@H](O)[C@@H]1O[C@@H]1O[C@H](CO)[C@@H](O[C@@H]2O[C@H](CO)[C@H](O)[C@H](O)[C@H]2O)[C@H](O)[C@H]1NC(C)=O)[C@@H](C)CC)[C@@H](C)O[C@H]1O[C@H](CO)[C@@H](O)[C@H](O)[C@@H]1O[C@@H]1O[C@H](CO)[C@@H](O[C@@H]2O[C@H](CO)[C@H](O)[C@H](O)[C@H]2O)[C@H](O)[C@H]1NC(C)=O)[C@@H](C)O)[C@@H](C)CC ({Hexanoyl(5-oxo)}-TRGAIIQTPT(X2)LGPIQPT(X2)RV-NH2)
5 | inactive | inactive | Active | Active | Active | Active | Active | Active | inactive | inactive | Active | Active | Active | Active | CC[C@H](C)[C@H](NC(=O)[C@H](C)NC(=O)CNC(=O)[C@H](CCCNC(=N)N)NC(=O)[C@@H](NC(=O)CCCC(C)=O)[C@@H](C)O)C(=O)N[C@H](C(=O)N[C@@H](CCC(N)=O)C(=O)N[C@H](C(=O)N1CCC[C@H]1C(=O)N[C@H](C(=O)N[C@@H](CC(C)C)C(=O)NCC(=O)N1CCC[C@H]1C(=O)N[C@H](C(=O)N[C@@H](CCC(N)=O)C(=O)N1CCC[C@H]1C(=O)N[C@H](C(=O)N[C@@H](CCCNC(=N)N)C(=O)N[C@H](C(N)=O)C(C)C)[C@@H](C)O[C@H]1O[C@H](CO)[C@@H](O)[C@H](O)[C@@H]1O[C@@H]1O[C@H](CO)[C@@H](O)[C@H](O)[C@H]1NC(C)=O)[C@@H](C)CC)[C@@H](C)O[C@H]1O[C@H](CO)[C@@H](O)[C@H](O)[C@@H]1O[C@@H]1O[C@H](CO)[C@@H](O[C@@H]2O[C@H](CO)[C@H](O)[C@H](O[C@]3(C(=O)O)C[C@H](O)[C@@H](NC(C)=O)[C@H]([C@H](O)[C@H](O)CO)O3)[C@H]2O)[C@H](O)[C@H]1NC(C)=O)[C@@H](C)O)[C@@H](C)CC ({Hexanoyl(5-oxo)}-TRGAIIQTPT(X1)LGPIQPT(GlcNAc(β1-2)αMan)RV-NH2)
6 | inactive | inactive | Active | Active | Active | Active | Active | Active | inactive | inactive | Active | Active | Active | Active | CC[C@H](C)[C@H](NC(=O)[C@H](C)NC(=O)CNC(=O)[C@H](CCCNC(=N)N)NC(=O)[C@@H](NC(=O)CCCC(C)=O)[C@@H](C)O)C(=O)N[C@H](C(=O)N[C@@H](CCC(N)=O)C(=O)N[C@H](C(=O)N1CCC[C@H]1C(=O)N[C@H](C(=O)N[C@@H](CC(C)C)C(=O)NCC(=O)N1CCC[C@H]1C(=O)N[C@H](C(=O)N[C@@H](CCC(N)=O)C(=O)N1CCC[C@H]1C(=O)N[C@H](C(=O)N[C@@H](CCCNC(=N)N)C(=O)N[C@H](C(N)=O)C(C)C)[C@@H](C)O)[C@@H](C)CC)[C@@H](C)O[C@H]1O[C@H](CO)[C@@H](O)[C@H](O)[C@@H]1O[C@@H]1O[C@H](CO)[C@@H](O[C@@H]2O[C@H](CO)[C@H](O)[C@H](O[C@]3(C(=O)O)C[C@H](O)[C@@H](NC(C)=O)[C@H]([C@H](O)[C@H](O)CO)O3)[C@H]2O)[C@H](O)[C@H]1NC(C)=O)[C@@H](C)O[C@H]1O[C@H](CO)[C@@H](O)[C@H](O)[C@@H]1O[C@@H]1O[C@H](CO)[C@@H](O[C@@H]2O[C@H](CO)[C@H](O)[C@H](O[C@]3(C(=O)O)C[C@H](O)[C@@H](NC(C)=O)[C@H]([C@H](O)[C@H](O)CO)O3)[C@H]2O)[C@H](O)[C@H]1NC(C)=O)[C@@H](C)CC ({Hexanoyl(5-oxo)}-TRGAIIQT(X1)PT(X1)LGPIQPTRV-NH2)

Source: ChEMBL document CHEMBL4387728, “Synthetic glycopeptides reveal specific binding pattern and conformational change at O-mannosylated position of α-dystroglycan by POMGnT1 catalyzed GlcNAc modification” (Bioorg Med Chem, 2019)
